Our source for the inhibition and IC50 values is patent publication US7879876B2, “Sulfonamide derivatives and use thereof for the modulation of metalloproteinases” (Merck Serono SA, priority 2005, dated 2011).

Common to all, as to format: biochemical
In one test the target is T1, collagenase (MMP-1) (Homo sapiens, UniProt P03956).
T1 sequence (P03956 100-469): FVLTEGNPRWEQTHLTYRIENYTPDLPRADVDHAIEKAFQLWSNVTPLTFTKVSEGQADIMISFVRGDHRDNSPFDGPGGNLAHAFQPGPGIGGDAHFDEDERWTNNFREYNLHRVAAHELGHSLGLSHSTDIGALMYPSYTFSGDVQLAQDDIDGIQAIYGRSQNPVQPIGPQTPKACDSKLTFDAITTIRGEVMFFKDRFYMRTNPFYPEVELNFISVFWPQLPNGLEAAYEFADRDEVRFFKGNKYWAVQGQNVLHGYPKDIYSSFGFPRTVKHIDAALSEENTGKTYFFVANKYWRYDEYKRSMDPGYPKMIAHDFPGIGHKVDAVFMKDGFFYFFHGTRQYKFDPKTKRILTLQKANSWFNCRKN
Nature of the test: MMP-1 enzyme inhibition assay (coumarin-labelled peptide substrate). Conditions: @ 5 μM; read-out: percentage inhibition MMP1. The essentials:
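Recombinant human MMP-1, APMA-activated if needed, in Tris-HCl pH 7.6 with NaCl, CaCl2 and 0.05% Brij 35; McaPLGLDpaAR substrate added as 8 μM solution, 2 h at 37 °C. Fluorescence (320/405 nm) read without stopping; IC50 from 10 duplicate concentrations (100 μM–5.1 nM) by four-parameter fit.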

A further test concerns the target T2, gelatinase A (MMP-2) (Homo sapiens, UniProt P08253).
T2 sequence (P08253 110-660): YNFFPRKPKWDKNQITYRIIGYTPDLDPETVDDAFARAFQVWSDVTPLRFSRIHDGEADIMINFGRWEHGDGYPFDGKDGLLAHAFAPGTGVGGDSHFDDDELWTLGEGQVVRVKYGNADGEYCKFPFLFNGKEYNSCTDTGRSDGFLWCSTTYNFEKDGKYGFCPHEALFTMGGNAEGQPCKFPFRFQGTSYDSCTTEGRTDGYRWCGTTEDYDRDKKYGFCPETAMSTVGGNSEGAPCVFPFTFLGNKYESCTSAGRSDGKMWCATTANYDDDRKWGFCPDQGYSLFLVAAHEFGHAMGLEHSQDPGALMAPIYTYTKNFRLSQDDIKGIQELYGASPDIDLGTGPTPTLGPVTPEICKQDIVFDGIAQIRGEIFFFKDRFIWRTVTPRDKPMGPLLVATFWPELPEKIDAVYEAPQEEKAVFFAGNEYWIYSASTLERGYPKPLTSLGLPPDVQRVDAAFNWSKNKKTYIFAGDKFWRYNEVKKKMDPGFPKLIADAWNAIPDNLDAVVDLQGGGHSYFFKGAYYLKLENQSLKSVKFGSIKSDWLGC
Nature of the test: MMP-2 enzyme inhibition assay (coumarin-labelled peptide substrate). Conditions: read-out: IC50 MMP2. An outline of the steps:
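Recombinant human MMP-2, APMA-activated if necessary, run as for the MMP-9 protocol: McaPLGLDpaAR substrate (8 μM working dilution) in 100 mM Tris-HCl pH 7.6, 100 mM NaCl, 10 mM CaCl2, 0.05% Brij 35; ten 3-fold concentrations (100 μM–5.1 nM) in duplicate, 2 h at 37° C. Fluorescence ex 320/em 405 nm, unstopped; IC50 from four-parameter fit.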

Another test concerns the target metalloelastase (MMP-12) (Homo sapiens, UniProt P39900). Nature of the test: MMP-12 enzyme inhibition assay (coumarin-labelled peptide substrate). Conditions: read-out: IC50 MMP12. An outline of the steps: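 Recombinant human MMP-12 assayed per the MMP-9 protocol: Tris-HCl pH 7.6 buffer with NaCl, CaCl2, Brij 35; McaPLGLDpaAR substrate, compounds 100 μM–5.1 nM in duplicate, 2 h at 37° C. Fluorescence read at 405 nm (320 nm excitation) without stopping; IC50 from four-parameter fit.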

Each structure is given as a SMILES string.

What is called inhibition is the share of the control response that was lost under treatment. In general, IC50 refers to the point on the concentration scale where inhibition reaches its midpoint.

metalloelastase (MMP-12), sequence (P39900 106-470): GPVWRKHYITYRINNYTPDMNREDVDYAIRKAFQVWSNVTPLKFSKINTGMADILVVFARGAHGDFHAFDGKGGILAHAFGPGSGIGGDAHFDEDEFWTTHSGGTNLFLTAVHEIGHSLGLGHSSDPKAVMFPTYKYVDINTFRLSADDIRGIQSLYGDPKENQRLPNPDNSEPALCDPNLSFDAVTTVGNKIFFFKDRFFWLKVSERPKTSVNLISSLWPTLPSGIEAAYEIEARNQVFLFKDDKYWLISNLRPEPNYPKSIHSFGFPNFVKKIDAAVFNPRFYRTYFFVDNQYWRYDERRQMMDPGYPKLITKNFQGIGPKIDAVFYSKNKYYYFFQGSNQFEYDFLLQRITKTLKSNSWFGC

On to `O=CN(O)C(CS(=O)(=O)N1CCc2ccc(Br)cc2C1)C1CCCC1` (stereo not drawn) [Example 64, N-{2-[(7-bromo-3,4-dihydroisoquinolin-2(1H)-yl)sulfonyl]-1-cyclopentylethyl}-N-hydroxyformamide], for which the inhibition at 5 µM at collagenase (MMP-1) was found to be 36%. Besides, the IC50 turned out to be 42 nM at gelatinase A (MMP-2) and 7.9 nM on metalloelastase (MMP-12).
As to `CC(C)(C)C(CS(=O)(=O)N1CCc2ccc(Cl)cc2C1)N(O)C=O` (stereo not drawn) [Example 65, N-(1-{[(7-chloro-3,4-dihydroisoquinolin-2(1H)-yl)sulfonyl]methyl}-2,2-dimethylpropyl)-N-hydroxyformamide], the inhibition at 5 µM on collagenase (MMP-1) was 30%. The results for the IC50 at gelatinase A (MMP-2) and on metalloelastase (MMP-12) were 277 nM and 27 nM, respectively.
On the same counts, the results for `O=CN(O)C(CS(=O)(=O)N1CCc2ccc(-c3ccsc3)cc2C1)C1CCCC1` (stereo not drawn) [Example 68, N-(1-cyclopentyl-2-{[7-(3-thienyl)-3,4-dihydroisoquinolin-2(1H)-yl]sulfonyl}ethyl)-N-hydroxyformamide] are 0%, 221 nM and 9 nM.
For the molecule `O=CN(O)C(CS(=O)(=O)N1CCc2ccc(-c3ccccc3)cc2C1)C1CCCC1` (stereo not drawn) [Example 69, N-{1-cyclopentyl-2-[(7-phenyl-3,4-dihydroisoquinolin-2(1H)-yl)sulfonyl]ethyl}-N-hydroxyformamide], at collagenase (MMP-1), the inhibition at 5 µM was 4%. In addition, the figures for the IC50 at gelatinase A (MMP-2) and at metalloelastase (MMP-12) were 527 nM and 18 nM, respectively.
In the case of `O=CN(O)C(CS(=O)(=O)N1CCc2ccc(-c3cccc(O)c3)cc2C1)C1CCCC1` (stereo not drawn) [Example 70, N-(1-cyclopentyl-2-{[7-(3-hydroxyphenyl)-3,4-dihydroisoquinolin-2(1H)-yl]sulfonyl}ethyl)-N-hydroxyformamide], on collagenase (MMP-1), the inhibition at 5 µM came to 0%. For the same molecule, the IC50 at gelatinase A (MMP-2) was determined as 1560 nM; on metalloelastase (MMP-12) it was 41 nM.
In the same order, the values of `O=CN(O)C(CS(=O)(=O)N1Cc2ccccc2C1)C1CC1` (stereo not drawn) [Example 72, N-[1-cyclopropyl-2-(1,3-dihydro-2H-isoindol-2-ylsulfonyl)-ethyl]-N-hydroxyformamide] are 75%, 510 nM and 20 nM.
In the same order, the values of `O=CN(O)C(CS(=O)(=O)N1CCc2ccc(Cl)cc2C1)C1CC1` (stereo not drawn) [Example 73, N-{2-[(7-chloro-3,4-dihydroisoquinolin-2(1H)-yl)sulfonyl]-1-cyclopropylethyl}-N-hydroxyformamide] are 19%, 187 nM and 45 nM.
On the same counts, the results for `O=CN(O)C(CS(=O)(=O)N1CCc2cc(C(F)(F)F)ccc2C1)C1CC1` (stereo not drawn) [Example 74, N-(1-cyclopropyl-2-{[6-(trifluoromethyl)-3,4-dihydro-isoquinolin-2(1H)-yl]sulfonyl}ethyl)-N-hydroxyformamide] are 44%, 97 nM and 5.2 nM.
With `O=CN(O)C(CS(=O)(=O)N1CCc2ccc(-c3ccc(F)cc3)cc2C1)C1CC1` (stereo not drawn) [Example 75, N-(1-cyclopropyl-2-{[7-(4-fluorophenyl)-3,4-dihydro-isoquinolin-2(1H)-yl]sulfonyl}ethyl)-N-hydroxyformamide], the inhibition at 5 µM at collagenase (MMP-1) was determined as 0%. Also, the values for the IC50 at gelatinase A (MMP-2) and at metalloelastase (MMP-12) were 219 nM and 6 nM, respectively.
In the same order, the values of `O=CN(O)C(CCC(F)(F)F)CS(=O)(=O)N1CCc2ccc(Cl)cc2C1` (stereo not drawn) [Example 76, N-(1-{[(7-chloro-3,4-dihydroisoquinolin-2(1H)-yl)-sulfonyl]methyl}-4,4,4-trifluorobutyl)-N-hydroxyformamide] are 43%, 82 nM and 22 nM.
In the same order, the values of `O=CN(O)C(CS(=O)(=O)N1CCc2cc(Cl)c(Cl)cc2C1)C1CCCC1` (stereo not drawn) [Example 77, N-{1-cyclopentyl-2-[(6,7-dichloro-3,4-dihydroisoquinolin-2(1H)-yl)sulfonyl]ethyl}-N-hydroxyformamide] are 17%, 31 nM and 5.1 nM.
On the same counts, the results for `O=CN(O)C(CS(=O)(=O)N1CCc2ccc(-c3ccncc3)cc2C1)C1CCCC1` (stereo not drawn) [Example 79, N-{1-cyclopentyl-2-[(7-pyridin-4-yl-3,4-dihydroisoquinolin-2(1H)-yl)sulfonyl]ethyl}-N-hydroxyformamide] are 0%, 67 nM and 2 nM.
Consider `O=CN(O)C(CS(=O)(=O)N1Cc2ccc(F)cc2C1)C1CCCC1` (stereo not drawn) [Example 80, N-{1-cyclopentyl-2-[(5-fluoro-1,3-dihydro-2H-isoindol-2-yl)sulfonyl]ethyl}-N-hydroxyformamide], for which, on collagenase (MMP-1), the inhibition at 5 µM is 25%. The 50% inhibitory concentration (IC50) on gelatinase A (MMP-2) came to 474 nM; on metalloelastase (MMP-12), 45 nM.
On the same counts, the results for `CC(C)c1ccc2c(c1)CCN(S(=O)(=O)CC(C1CCCC1)N(O)C=O)C2` (stereo not drawn) [Example 81, N-{1-cyclopentyl-2-[(6-isopropyl-3,4-dihydroisoquinolin-2(1H)-yl)sulfonyl]ethyl}-N-hydroxyformamide] are 3%, 63 nM and 3.1 nM.
On the same counts, the results for `O=CN(O)C(CS(=O)(=O)N1CCc2ccc(C(F)(F)F)cc2C1)C1CCCC1` (stereo not drawn) [Example 82, N-(1-cyclopentyl-2-{[7-(trifluoromethyl)-3,4-dihydro-isoquinolin-2(1H)-yl]sulfonyl}ethyl)-N-hydroxyformamide] are 10%, 348 nM and 26 nM.
In the same order, the values of `O=CN(O)C(CS(=O)(=O)N1CCc2ccc(C(F)(F)F)cc2C1)C1CC1` (stereo not drawn) [Example 83, N-(1-cyclopropyl-2-{[7-(trifluoromethyl)-3,4-dihydroisoquinolin-2(1H)-yl]sulfonyl}ethyl)-N-hydroxyformamide] are 4%, 686 nM and 52 nM.
Regarding `CC(C)c1ccc2c(c1)CCN(S(=O)(=O)CC(C1CC1)N(O)C=O)C2` (stereo not drawn) [Example 85, N-{1-cyclopropyl-2-[(6-isopropyl-3,4-dihydroisoquinolin-2(1H)-yl)sulfonyl]ethyl}-N-hydroxyformamide], the inhibition at 5 µM on collagenase (MMP-1) amounted to 5%. For the same molecule, the IC50 at gelatinase A (MMP-2) is 78 nM; at metalloelastase (MMP-12), 4.9 nM.
On to `O=CN(O)C(CCc1cccnc1)CS(=O)(=O)N1CCc2ccc(Cl)cc2C1` (stereo not drawn) [Example 86, N-(1-{[(7-chloro-3,4-dihydroisoquinolin-2(1H)-yl)sulfonyl]methyl}-3-pyridin-3-ylpropyl)-N-hydroxyformamide], for which the inhibition at 5 µM at collagenase (MMP-1) is 49%. In addition, the IC50 on gelatinase A (MMP-2) was found to be 21 nM; at metalloelastase (MMP-12), 9.8 nM.
